# What was measured:
# in vitro = settings: human
# [1] = system: human red blood cells (hRBCs); settings: at 5 'LIM
smiles,measurement,setting,value
CC[C@H](C)[C@H](NC(=O)CN)C(=O)NCC(=O)N[C@@H](C)C(=O)N[C@H](C(=O)N[C@@H](CC(C)C)C(=O)N[C@@H](CCCCN)C(=O)N[C@H](C(=O)N[C@@H](CC(C)C)C(=O)N[C@H](C(=O)N[C@H](C(=O)NCC(=O)N[C@@H](CC(C)C)C(=O)N1CCC[C@H]1C(=O)N[C@@H](C)C(=O)N[C@@H](CC(C)C)C(=O)N[C@H](C(=O)N[C@@H](CO)C(=O)N[C@@H](Cc1c[nH]c2ccccc12)C(=O)N[C@H](C(=O)N[C@@H](CCCCN)C(=O)N[C@@H](CCCNC(=N)N)C(=O)N[C@@H](CCCCN)C(=O)N[C@@H](CCCNC(=N)N)C(=O)N[C@@H](CCC(N)=O)C(=O)N[C@@H](CCC(N)=O)C(N)=O)[C@@H](C)CC)[C@@H](C)CC)[C@@H](C)O)[C@@H](C)O)C(C)C)C(C)C [Melittin],hemolysis at 5 µM,in vitro,> 80%
same,hemolytic activity,[1],highly hemolytic

# — patent US9533975B2, “Dual-action, unnatural proline-rich peptides as antibiotic agents and methods thereof” (Purdue Research Foundation, priority 2014, dated 2017)
